ChEMBL document CHEMBL5154838, “A pH-Dependent rhodamine fluorophore with antiproliferative activity of bladder cancer in Vitro/Vivo and apoptosis mechanism” (Eur J Med Chem, 2022)
Each block holds one compound with its values, some of them ahead of it. Calls of active or inactive are those of the source. The rule behind the calls is not given here.

Experiments:
[1] = Fluorescence response in PBS solution at pH 3 to 9 assessed as higher sensitivity to fluorescence intensity at 2 uM; type: physicochemical; settings: buffer, pH 3, 2 µM
[2] = tested on: EJ; experiment: Antiproliferative activity against human EJ cells assessed as inhibition of colony formation at 8.34 uM measured by colony formation assay; type: functional, cell-based
[3] = tested on: EJ; experiment: Antiproliferative activity against human EJ cells after 24 hrs by CCK-8 assay; type: functional, cell-based
[4] = tested on: EJ; experiment: Antiproliferative activity against human EJ cells at pH 6.5 assessed as cell viability at 22.35 uM after 24 hrs by CCK-8 assay relative to control; type: functional; settings: read-out: Activity
[5] = tested on: EJ; experiment: Antiproliferative activity against human EJ cells at pH 7.5 assessed as LDH levels at 22.35 uM after 24 hrs relative to control; type: functional
[6] = tested on: EJ; experiment: Antitumor activity against human EJ cells xenografted in male nude mouse assessed as decrease in PCNA expression at 22.35 uM and measured at pH 6.5 by immunohistochemistry analysis; type: functional, cell-based
[7] = tested on: EJ; experiment: Antitumor activity against human EJ cells xenografted in male nude mouse assessed as increase in Bax expression at 22.35 uM and measured by Western blotting analysis; type: functional, cell-based
[8] = Antiproliferative activity against human SV-HUC-1 cells after 24 hrs by CCK-8 assay; type: functional, cell-based; settings: SV-HUC1, 24 h
[9] = tested on: EJ; experiment: Antitumor activity against human EJ cells xenografted in male nude mouse assessed as decrease in Ki-67 expression at 22.35 uM and measured at pH 6.5 by immunohistochemistry analysis; type: functional, cell-based
[10] = tested on: EJ; experiment: Induction of apoptosis in human EJ cells at 22.35 uM assessed as increase in cleaved caspase-9 expression measured by Western blotting assay; type: functional, cell-based
[11] = tested on: EJ; experiment: Induction of apoptosis in human EJ cells at 22.35 uM assessed as increase in apoptosis rate measured by Annexin V-PE/7-AAD-based flow cytometry assay; type: functional, cell-based
[12] = tested on: EJ; experiment: Antitumor activity against human EJ cells xenografted in male nude mouse assessed as decrease in Ki-67 expression at 22.35 uM and measured at pH 5.5 by immunohistochemistry analysis; type: functional, cell-based
[13] = tested on: EJ; experiment: Antitumor activity against human EJ cells xenografted in male nude mouse assessed as decrease in Ki-67 expression at 22.35 uM and measured at pH 8.5 by immunohistochemistry analysis; type: functional, cell-based
[14] = tested on: EJ; experiment: Antitumor activity against human EJ cells xenografted in male nude mouse assessed as decrease in Ki-67 expression at 22.35 uM and measured at pH 7.5 by immunohistochemistry analysis; type: functional, cell-based
[15] = tested on: EJ; experiment: Antitumor activity against human EJ cells xenografted in male nude mouse assessed as reduction in tumor volume at 22.35 uM and measured at pH 7.5; type: functional, cell-based
[16] = tested on: EJ; experiment: Induction of apoptosis in human EJ cells at 22.35 uM assessed as increase in Bax expression measured by Western blotting assay; type: functional, cell-based
[17] = tested on: EJ; experiment: Antitumor activity against human EJ cells xenografted in male nude mouse assessed as decrease in PCNA expression at 22.35 uM and measured at pH 8.5 by immunohistochemistry analysis; type: functional, cell-based
[18] = tested on: EJ; experiment: Antitumor activity against human EJ cells xenografted in male nude mouse assessed as reduction in tumor weight at 22.35 uM and measured at pH 8.5; type: functional, cell-based
[19] = tested on: EJ; experiment: Antiproliferative activity against human EJ cells at pH 6.5 assessed as LDH levels at 22.35 uM after 24 hrs relative to control; type: functional
[20] = tested on: EJ; experiment: Antitumor activity against human EJ cells xenografted in male nude mouse assessed as reduction in tumor weight at 22.35 uM and measured at pH 5.5; type: functional, cell-based
[21] = tested on: EJ; experiment: Antiproliferative activity against human EJ cells assessed as inhibition of colony formation at 22.35 uM measured by colony formation assay; type: functional, cell-based
[22] = tested on: EJ; experiment: Antitumor activity against human EJ cells xenografted in male nude mouse assessed as increase in cleaved caspase-9 expression at 22.35 uM and measured by Western blotting analysis; type: functional, cell-based
[23] = tested on: EJ; experiment: Antitumor activity against human EJ cells xenografted in male nude mouse assessed as reduction in tumor volume at 22.35 uM and measured at pH 6.5; type: functional, cell-based
[24] = tested on: EJ; experiment: Antitumor activity against human EJ cells xenografted in male nude mouse assessed as increase in cleaved caspase-3 expression at 22.35 uM and measured by Western blotting analysis; type: functional, cell-based
[25] = tested on: EJ; experiment: Antitumor activity against human EJ cells xenografted in male nude mouse assessed as decrease in PCNA expression at 22.35 uM and measured at pH 7.5 by immunohistochemistry analysis; type: functional, cell-based
[26] = tested on: EJ; experiment: Antitumor activity against human EJ cells xenografted in male nude mouse assessed as reduction in tumor volume at 22.35 uM and measured at pH 5.5; type: functional, cell-based
[27] = tested on: EJ; experiment: Antitumor activity against human EJ cells xenografted in male nude mouse assessed as reduction in tumor volume at 22.35 uM and measured at pH 8.5; type: functional, cell-based
[28] = tested on: EJ; experiment: Antitumor activity against human EJ cells xenografted in male nude mouse assessed as reduction in tumor weight at 22.35 uM and measured at pH 7.5; type: functional, cell-based
[29] = tested on: EJ; experiment: Antiproliferative activity against human EJ cells at pH 7.5 assessed as cell viability at 22.35 uM after 24 hrs by CCK-8 assay relative to control; type: functional; settings: read-out: Activity
[30] = tested on: EJ; experiment: Induction of apoptosis in human EJ cells at 22.35 uM assessed as increase in cleaved caspase-3 expression measured by Western blotting assay; type: functional, cell-based
[31] = tested on: EJ; experiment: Antitumor activity against human EJ cells xenografted in male nude mouse assessed as reduction in tumor weight at 22.35 uM and measured at pH 6.5; type: functional, cell-based
[32] = tested on: EJ; experiment: Antitumor activity against human EJ cells xenografted in male nude mouse assessed as decrease in PCNA expression at 22.35 uM and measured at pH 5.5 by immunohistochemistry analysis; type: functional, cell-based

Activity [1]: Active
Compound: CCNc1cc2c(cc1C)C1(c3cc(C)c(NCC)cc3O2)c2ccccc2C(=O)N1C1CCC1

Activity [1]: Active
Compound: CCNc1cc2c(cc1C)C1(c3cc(C)c(NCC)cc3O2)c2ccccc2C(=O)N1c1ccn([C@@H]2O[C@H](CO)[C@@H](O)C2(F)F)c(=O)n1
Activity [2]: Active
IC50 [3]: 8.34 µM

Activity [1]: Active
Compound: CCNc1cc2c(cc1C)C1(c3cc(C)c(NCC)cc3O2)c2ccccc2C(=O)N1CC1CCOCC1

Activity [1]: Active
Compound: CCNc1cc2c(cc1C)C1(c3cc(C)c(NCC)cc3O2)c2ccccc2C(=O)N1CC1CCCO1 (configuration not stated)

Activity [1]: Active
Compound: CCNc1cc2c(cc1C)C1(c3cc(C)c(NCC)cc3O2)c2ccccc2C(=O)N1Cc1ccccn1
viability at 22.35 µM [4]: 68.4%
Activity [5]: 26.4%
Activity [6]: Active
Activity [7]: Active
IC50 [8]: 25.6 µM
Activity [9]: Active
Activity [10]: Active
Activity [11]: Active
Activity [12]: Active
Activity [13]: Active
Activity [14]: Active
Activity [15]: Active
Activity [16]: Active
Activity [17]: Active
IC50 [3]: 22.4 µM
Activity [18]: Active
Activity [19]: 42.8%
Activity [20]: Active
Activity [21]: Active
Activity [22]: Active
Activity [23]: Active
Activity [24]: Active
Activity [25]: Active
Activity [26]: Active
Activity [27]: Active
Activity [28]: Active
viability at 22.35 µM [29]: 83.2%
Activity [30]: Active
Activity [31]: Active
Activity [32]: Active
